# According to PMC5671655, “LASSBio-897 Reduces Lung Injury Induced by Silica Particles in Mice: Potential Interaction with the A2A Receptor” (Frontiers in Pharmacology, 2017):
# Experiments:
# adenosine A2A receptor [1] = molecular target: T1, adenosine A2A receptor (Homo sapiens, UniProt P29274); assay: radioligand competition with [3H]-adenosine; format: binding
# T1 construct: gene ADORA2A; membrane preparation of HEK293 cells overexpressing the human A2A receptors
# 5-HT transporter = molecular target: T2, 5-HT transporter (Homo sapiens, UniProt P31645); assay: Cerep Diversity Profile screen, single concentration […]
# T2 construct: gene SLC6A4
# adenosine A2A receptor [2] = molecular target: T3, adenosine A2A receptor (Rattus norvegicus, UniProt P30543); assay: radioligand competition with [3H]-CGS21680; format: binding
# T3 construct: gene Adora2a; rat striatum membrane preparation
# T3 sequence (P30543 whole entry): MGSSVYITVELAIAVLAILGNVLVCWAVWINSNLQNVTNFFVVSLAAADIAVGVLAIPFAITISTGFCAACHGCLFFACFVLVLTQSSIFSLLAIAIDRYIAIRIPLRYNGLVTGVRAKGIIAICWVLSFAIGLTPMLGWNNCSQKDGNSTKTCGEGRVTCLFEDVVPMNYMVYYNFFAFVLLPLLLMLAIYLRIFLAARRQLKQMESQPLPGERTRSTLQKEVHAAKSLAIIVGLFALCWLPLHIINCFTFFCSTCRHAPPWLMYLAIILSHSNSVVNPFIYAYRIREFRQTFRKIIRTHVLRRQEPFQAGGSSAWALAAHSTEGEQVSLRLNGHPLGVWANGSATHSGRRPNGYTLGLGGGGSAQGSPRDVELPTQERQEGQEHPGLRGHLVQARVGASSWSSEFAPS
# T1 sequence (P29274 whole entry): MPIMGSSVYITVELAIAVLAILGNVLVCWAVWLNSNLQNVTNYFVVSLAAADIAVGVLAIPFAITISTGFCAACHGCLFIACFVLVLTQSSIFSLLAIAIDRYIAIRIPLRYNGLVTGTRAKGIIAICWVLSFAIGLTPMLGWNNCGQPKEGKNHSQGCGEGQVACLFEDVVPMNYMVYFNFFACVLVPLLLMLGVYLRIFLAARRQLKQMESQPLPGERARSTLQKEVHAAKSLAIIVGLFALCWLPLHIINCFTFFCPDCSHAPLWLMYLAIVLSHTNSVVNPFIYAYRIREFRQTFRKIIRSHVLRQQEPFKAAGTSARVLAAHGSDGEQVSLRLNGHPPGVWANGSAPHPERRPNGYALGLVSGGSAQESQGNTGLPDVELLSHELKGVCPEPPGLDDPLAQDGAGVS
# T2 sequence (P31645 whole entry): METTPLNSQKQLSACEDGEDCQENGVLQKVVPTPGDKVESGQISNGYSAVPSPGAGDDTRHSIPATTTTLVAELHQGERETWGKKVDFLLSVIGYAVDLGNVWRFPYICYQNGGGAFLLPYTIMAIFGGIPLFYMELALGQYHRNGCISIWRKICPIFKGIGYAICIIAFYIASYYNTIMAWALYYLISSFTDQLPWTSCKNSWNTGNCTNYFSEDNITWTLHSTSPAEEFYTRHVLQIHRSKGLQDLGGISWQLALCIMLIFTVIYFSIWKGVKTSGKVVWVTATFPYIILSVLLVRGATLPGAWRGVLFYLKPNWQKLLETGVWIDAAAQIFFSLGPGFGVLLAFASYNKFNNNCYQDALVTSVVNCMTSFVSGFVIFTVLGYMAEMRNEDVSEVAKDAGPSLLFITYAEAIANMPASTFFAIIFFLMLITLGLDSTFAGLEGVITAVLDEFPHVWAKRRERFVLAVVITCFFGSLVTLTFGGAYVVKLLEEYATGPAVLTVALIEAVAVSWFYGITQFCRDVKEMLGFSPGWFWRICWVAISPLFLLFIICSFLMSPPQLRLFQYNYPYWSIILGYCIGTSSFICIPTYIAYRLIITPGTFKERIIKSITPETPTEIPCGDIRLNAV
compound,measurement,setting,value
O=C(N/N=C/c1ccsc1)c1ccc2c(c1)OCO2 [LASSBio-897],IC50,adenosine A2A receptor [1],11.4 µM
same,inhibition at 10 µM,5-HT transporter,56%
same,IC50,adenosine A2A receptor [2],9.3 µM
